Measured values published in patent US10098894B2, “Transdermal cream” (TherapeuticsMD, Inc., priority 2014, dated 2018).
In brackets after ≈: the same amount, converted by molar mass. Where two headings read alike, the source gives them in different places. Values belong to the compound of their own block, whether it stands above or below them.

Key:
[1] = system: endometrium and vagina in ovariectomized rats; experiment: Estradiol-induced endometrium proliferation in ovariectomized rats (uterine weight, histology, histomorphometry); format: in vivo, rat; conditions: for Uterine weight compared to estradiol-only treatment group: Days 4-8, with estradiol
Protocol: Thirty-two 8-week-old, female, Crl:CD® rats underwent ovariectomy 2 weeks prior to the start of the study. Rats were randomly assigned to 4 groups of 8 rats each. Three of the groups received 3 μg/kg/day estradiol, subcutaneously (SC), for 8 days as well as a placebo cream, 10 mg/kg/day progesterone, SC, or 3.125 mg/day progesterone transdermally beginning on Day 4. The fourth group received saline, SC for 8 days and placebo cream beginning on Day 4. Two hours after the final dose on Day 8, the rats were humanely euthanized, uterine weights were measured, and the vagina and distal portions of the uterine horns were fixed and processed for histology and computer-aided morphometry. Study parameters are outlined in Table 22.

[2] = Progesterone solubility study in different solvent systems; format: physicochemical; conditions: thermodynamic from solid, room temperature, visual
Protocol: Solubility of progesterone was determined on a visual basis by adding progesterone incrementally to a certain quantity of solvent at room temperature until a supersaturated solution was formed.

[3] = Exposure, tissue distribution and metabolite profile (progesterone, ALLO, ALLO-sulfate in plasma, salivary gland, uterus) in ovariectomized rats; format: in vivo; conditions: for Kp at 2 h: female, Crl:CD, uterus/plasma, read-out: Ratio of progesterone levels in the uterus to plasma; for Mean progesterone level in plasma / Mean progesterone level in salivary gland / Mean progesterone level in uterus: 2 hours after final dose Day 8
Protocol: Thirty-two 8-week-old, female, Crl:CD® rats underwent ovariectomy 2 weeks prior to study start. […] Plasma and tissue homogenates were analyzed for progesterone, ALLO, and ALLO-sulfate using LC-MS/MS.

[4] = Progesterone solubility study in different solvent systems; format: physicochemical; conditions: oil or lipid, thermodynamic from solid; in CAPRYOL 90; solubility determined by HPLC

Compound: C[C@]12CC[C@@H]3c4ccc(O)cc4CC[C@H]3[C@@H]1CC[C@@H]2O [estradiol, (17β)-estra-1,3,5(10)-triene-3,17-diol]
Effect of unopposed estradiol treatment on the uterus (organ weight, histology) ([1]; 3 μg/kg/day SC, 8 days): hypertrophy

solubility ([2]; aqueous with cosolvent or surfactant or cyclodextrin, in 5% SLS): 6.6 mg/mL (≈ 21 mM) | solubility ([2]; oil or lipid, in CAPRYOL PGMC): 82 mg/mL (≈ 261 mM) | solubility ([2]; oil or lipid, in GLYCEROX 767): 22.2 mg/mL (≈ 70.6 mM) | solubility ([2]; oil or lipid, in LABRAFAC PG): 41 mg/mL (≈ 130 mM) | solubility ([2]; oil or lipid, in LAUROGLYCOL 90): 90.2 mg/mL (≈ 287 mM) | solubility ([2]; oil or lipid, in LAUROGLYCOL FCC): 60 mg/mL (≈ 191 mM) | solubility ([2]; oil or lipid, in MIGLYOL 812 + D-L α Tocopherol Care (85:15)): 38.2 mg/mL | solubility ([2]; oil or lipid, in MIGLYOL 812 + D-L α Tocopherol Care (95:5)): 20.1 mg/mL | solubility ([2]; oil or lipid, in MIGLYOL 812 + LABRAFAC PG (50:50)): 25.7 mg/mL | solubility ([2]; oil or lipid, in MIGLYOL 812 + LAUROGLYCOL 90 (25:75)): 47 mg/mL | solubility ([2]; oil or lipid, in MIGLYOL 812 + LAUROGLYCOL 90 (50:50)): 58.9 mg/mL | solubility ([2]; oil or lipid, in MIGLYOL 812 + TRANSCUTOL (92.5:7.5)): 40.2 mg/mL | solubility ([2]; oil or lipid, in MIGLYOL 812 + TRANSCUTOL (95:5)): 40.5 mg/mL | solubility ([2]; oil or lipid, in MIGLYOL 812 + Vitamin E TPGS (91:9)): 45.2 mg/mL | solubility ([2]; oil or lipid, in MIGLYOL 812): 25 mg/mL (≈ 79.5 mM) | solubility ([2]; oil or lipid, in MIGLYOL 829): 41.3 mg/mL (≈ 131 mM) | solubility ([2]; oil or lipid, in MIGLYOL 840): 41.7 mg/mL (≈ 133 mM) | solubility ([2]; oil or lipid, in Oleic Acid): 62.2 mg/mL (≈ 198 mM) | solubility ([2]; oil or lipid, in Oleyl Alcohol): 41.2 mg/mL (≈ 131 mM) | solubility ([2]; organic solvent or mixture, in Absolute Alcohol): 57 mg/mL (≈ 181 mM) | solubility ([2]; organic solvent or mixture, in Dimethyl Isosorbide): 92 mg/mL (≈ 293 mM) | solubility ([2]; organic solvent or mixture, in Propylene Glycol): 10.5 mg/mL (≈ 33.4 mM) | solubility ([2]; organic solvent or mixture, in TRANSCUTOL): 60.3 mg/mL (≈ 192 mM) | solubility ([2]; organic solvent or mixture, in d-Limonene + TRANSCUTOL (25:75)): 95.6 mg/mL | solubility ([2]; organic solvent or mixture, in d-Limonene + TRANSCUTOL (40:60)): 102 mg/mL | solubility ([2]; organic solvent or mixture, in d-Limonene + TRANSCUTOL (50:50)): 100 mg/mL | solubility ([2]; organic solvent or mixture, in d-Limonene): 204 mg/mL (≈ 649 mM) | Kp at 2 h ([3]; 10 mg/kg/day, rat, SC route): 7.3 | Kp at 2 h ([3]; topical, 3.13 mg/rat/day, transdermal route): 12 | Mean progesterone level in plasma ([3]; rat, SC administration): 5.4 ng/mL/mg dose | Mean progesterone level in salivary gland ([3]; rat, SC administration): 5.9 ng/mL/mg dose | Mean progesterone level in uterus ([3]; rat, SC administration): 39 ng/mL/mg dose | Levels of ALLO in the plasma, comparison of both routes of administration ([3]; rat, SC vs topical): similar | Sum of plasma levels of ALLO and ALLO-sulfate relative to plasma level of progesterone ([3]; rat, after topical dosing): equivalent | Mean tissue levels of ALLO and ALLO-sulfate, SC administration compared to topical administration ([3]; rat, all instances): higher | Mean progesterone level in plasma ([3]; rat, topical administration (Table 16 formulation)): 2.0 ng/mL/mg dose | Mean progesterone level in salivary gland ([3]; rat, topical administration): 10 ng/mL/mg dose | Mean progesterone level in uterus ([3]; rat, topical administration): 24 ng/mL/mg dose | solubility [4]: 112 mg/mL (≈ 355 mM)
Compound: CC(=O)[C@H]1CC[C@H]2[C@@H]3CCC4=CC(=O)CC[C@]4(C)[C@H]3CC[C@]12C [progesterone, pregn-4-ene-3,20-dione]
Endometrial gland density, transdermal as compared to SC progesterone [1]: significant increase | Uterine weight compared to estradiol-only treatment group ([1]; progesterone 3.125 mg/day transdermally (formulation of Table 16)): pronounced reduction | Uterine weight compared to estradiol-only treatment group ([1]; progesterone 10 mg/kg/day SC): pronounced reduction | Endometrial gland density compared to unopposed estradiol ([1]; progesterone SC): significant increase | Luminal epithelial cell thickness compared to unopposed estradiol ([1]; progesterone SC): significant reduction | Estrogen-specific cellular aspects in uterus and vagina (histology) ([1]; progesterone SC with estradiol): not detected | Endometrial gland density compared to unopposed estradiol ([1]; progesterone transdermally): significant increase | Luminal epithelial cell thickness compared to unopposed estradiol ([1]; progesterone transdermally): significant reduction | Estrogen-specific cellular aspects in uterus and vagina (histology) ([1]; progesterone transdermally with estradiol): not detected
